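Assay format: 96-well plates, 48-hour exposure. GI50: concentration for 50% inhibition of growth. TGI: total growth inhibition.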
Key:
Assay in all cases: DTP human tumour cell line panel, 48 h
A498 renal = system: A498 renal
COLO 205 colon = system: COLO 205 colon
DLD-1 colon = system: DLD-1 colon
LXFL 529 NSCLC = system: LXFL 529 NSCLC
SF-268 CNS = system: SF-268 CNS
SN12C renal = system: SN12C renal
U251 CNS = system: U251 CNS
UO-31 renal = system: UO-31 renal
OVCAR-3 ovarian = system: OVCAR-3 ovarian
DU-145 prostate = system: DU-145 prostate

SMILES	TGI (A498 renal) [µM]	TGI (COLO 205 colon) [µM]	TGI (DLD-1 colon) [µM]	TGI (LXFL 529 NSCLC) [µM]	TGI (SF-268 CNS) [µM]	TGI (SN12C renal) [µM]	TGI (U251 CNS) [µM]	TGI (UO-31 renal) [µM]	TGI (OVCAR-3 ovarian) [µM]	GI50 (A498 renal) [µM]	GI50 (COLO 205 colon) [µM]	GI50 (DU-145 prostate) [µM]	TGI (DU-145 prostate) [µM]	GI50 (OVCAR-3 ovarian) [µM]	GI50 (SF-268 CNS) [µM]	GI50 (SN12C renal) [µM]	GI50 (U251 CNS) [µM]	GI50 (UO-31 renal) [µM]
N#Cc1cccc(C2SCc3nc4ccccc4n32)c1 (stereo unspecified)	> 100	> 100	> 100	> 100	> 100	> 100	> 100	> 100										
Cc1c(Cl)ccc2[s+]snc12	> 100	> 100	62	92	62.8	57.3	70.2	> 100	> 100									
O=C1C(=C2C(=O)c3ccccc3[N+]2=O)N([O-])c2ccccc21	73.8	33	88.6	43.5	88.5		53.9	> 100	39.7									
C#CC[C@]12CC(=O)CC[C@H]1CC1(C2)OCCO1	> 100	> 100	> 100	> 100	> 100	> 100	> 100	> 100	> 100									
O=C(CC1(O)C(=O)Nc2ccc(Br)cc21)c1cccc([N+](=O)[O-])c1 (stereo unspecified)		> 100	> 100	> 100	> 100	> 100	> 100	> 100	> 100									
O=C(c1ccccc1)N1CCc2c([nH]c3ccccc23)C1		36.7	> 100	> 100		> 100	> 100	99.2	> 100									
CC1(C)OC2OC(/C=C/[N+](=O)[O-])C3OC(C)(C)OC3C2O1 (stereo unspecified)	47.1	14.5	4.05	10.1	39.5	31.1	32.7	34.8	34.7									
COc1cc(CC2c3cc(OC)c(OC)cc3CCN2C)c(C(=O)O)cc1OC (stereo unspecified)	> 100	> 100	> 100	> 100	> 100	> 100	> 100	> 100	> 100									
COC(=O)N1C=Cc2c(c(C)c3c([nH]c4ccccc43)c2C)C1C (stereo unspecified)	28.8	34.4	32.7	43.7	44.6		30.4	34.2	30.9									
N#CC1(C2CC(=O)N(c3ccccc3)C2=O)CCCCC1=O (stereo unspecified)		> 100	> 100	> 100	> 100	> 100	> 100	> 100	> 100									
Cc1cc2c(=O)cc(-c3ccncc3)oc2c(C(N)=O)c1C		> 100		> 100	> 100	> 100	> 100	> 100	> 100									
CC[C@H]1CNC(=O)CC1CC(=O)OC (stereo partly specified)	> 100		> 100		> 100	> 100	> 100	> 100										
O=C(Nc1cc(Cl)ccc1Cl)c1cc2ccccc2oc1=O		> 100	> 100			> 100	> 100		> 100									
CCCCP1(=O)C=CC(Cl)=C(C)C1 (stereo unspecified)	> 100	> 100	> 100	> 100	> 100	> 100	> 100	> 100	> 100									
CC(C)CC(=O)O[C@H]1C(=O)O[C@@H]2C[C@H]3[C@H](C)C(=O)C(O[C@@H]4O[C@H](CO)[C@@H](O)[C@H](O)[C@H]4O)=C[C@]3(C)[C@H]3[C@@H](O)[C@H](O)[C@]4(C(=O)O)OC[C@]32[C@@H]14	> 100	> 100			> 100	> 100	> 100	> 100	> 100	> 100	> 100	> 100	> 100	36.4	> 100	> 100	31.7	
C=C1C(=O)O[C@H]2[C@H]1CC/C(COC(=O)NCc1ccc(Cn3c(=O)sn(CCCI)c3=O)cc1)=C\CC[C@@]1(C)O[C@@H]21	16.8	3.66			7.41	3.62	3.68	2.94	2.43	4.85	1.95	1.74	3.16	1.19	2.54	1.57	1.75	1.52
COc1cc(Br)c(C2OCCCO2)cc1OCc1ccccc1	> 100	> 100	> 100	> 100	> 100	> 100	> 100	> 100	> 100									
CC(=O)Nc1ccc(S(=O)(=O)N2C(=O)CCC2C(=O)Nc2ccccc2)cc1 (stereo unspecified)	8.77	4.38			23.3	22.6	13.3	16.5	11.8	0.303	0.872	3.46	19.2	1.75	3.82	2.68	1.59	0.55
C/C(=N\NC(N)=S)c1ccc(Oc2ccccc2)cc1	29.5	25.7	16.9	17.5		38.4	31.3		22.9									
O=P(c1ccccc1)(c1ccccc1)C1CC=C2CCCCCC2C1 (stereo unspecified)	97.7	56.4		46.2	66	> 100	> 100	52.7	50									
BrC(/C=N/Nc1nnc(-c2ccccc2)c(-c2ccccc2)n1)C(Br)c1ccccc1 (stereo unspecified)	> 100	> 100	> 100		> 100	> 100	> 100	60.5	> 100									
COc1ccc2c(c1)OCC1c3cc(OC)ccc3OC21 (stereo unspecified)	> 100	> 100			> 100	> 100	> 100	> 100	> 100	63.1	38.2	> 100	> 100	44.2	50.5	74.3	58	39
COc1cc(C(=O)N[C@@H]2CCCN(C)C2)ccc1Nc1ncc2c(n1)N(C1CCCC1)CC(C)(C)C(=O)N2C	0.774	1.18			20.1	16.6	5.48	16.1	16.1	0.0715	0.0412	0.0488	19.6	0.0442	0.588	0.347	0.0465	1.96

Reference: PubChem BioAssay (NCI)
